Assay results published in US20160060642A1, “G Protein Coupled Receptor Libraries” (COMMONWEALTH SCIENTIFIC AND INDUSTRIAL RESEARCH ORGANISATION, priority 2013, published 2016).

Experiments:
Type in all cases: cell-based
ODR-10 [1] = target: T1, ODR-10 (Caenorhabditis elegans, UniProt Q18807); test: Multiwell (48/96 well) LacZ/ONPG assay of yeast screening strain transformed with odr-10; details: for Abs414 reading after 3 hours: 500 μM diacetyl
T1 construct: expressed in transfected cells; host or cells: Saccharomyces cerevisiae Cyb-KAGMM (ste2- sst2- far1- gpa1-, gpa1/odr-3 chimaera integrated)
T1 sequence (Q18807 1-339): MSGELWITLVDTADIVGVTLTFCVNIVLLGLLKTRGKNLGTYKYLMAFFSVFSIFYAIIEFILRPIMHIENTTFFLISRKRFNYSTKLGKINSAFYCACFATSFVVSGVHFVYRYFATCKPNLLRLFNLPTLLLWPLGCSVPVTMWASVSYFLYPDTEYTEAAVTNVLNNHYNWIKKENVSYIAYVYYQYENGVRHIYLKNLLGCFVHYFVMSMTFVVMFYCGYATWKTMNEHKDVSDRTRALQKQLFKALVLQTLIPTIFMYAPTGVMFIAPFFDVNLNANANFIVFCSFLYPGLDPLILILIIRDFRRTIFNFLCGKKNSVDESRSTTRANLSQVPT
Method: The method was as follows ([…] from Brouchon-[…] et al., 2003): • 1 mL of Saccharomyces cerevisiae Minimal Medium (SCMM)-His, -Leu was inoculated with a single colony of the screening strain transformed with odr-10 (lacZ/[…]^31 gpa1^-) at Abs600 nm=1, in a 96-well deep well plate. • The plate was incubated overnight (18 hours) at 30° C. with shaking at 900 rpm. • The culture from the well was diluted into fresh wells (96 or 48 well plate) to a final volume of 1 mL at the following yeast cell optical densities: • 1. Abs600=1 • 2. Abs600=0.5 • 3. Abs600=0.5 • Wells 1 and 2 above were induced with 500 μM of a diacetyl solution (made up fresh and kept on ice); 1M: 87 μL diacetyl+913 μL water; then diluted 1/10 in water and 5 μL added to 1 mL cells for a final concentration of 500 μM). All wells were incubated for 30° C. for 18 hours with shaking at 900 rpm. • The plate was centrifuged to pellet the cells, the supernatant was aspirated off and discarded and the pellet was resuspended in 120 μL of lysis buffer (100 mM sodium phosphate buffer, pH 7.5 (consisting of 82 mM Na2HPO4 and […] with 0.1% (w/v) sodium dodecyl sulfate). Initial absorbance was read at 414 nm in a plate-reading spectrophotometer. • The plate was shaken at 900 rpm for 10 min at 30° C. • Thirty microlitres of 2.5 mM o-nitrophenyl-β-D-galactopyranoside (ONPG) (10 mg ONPG dissolved in 130 μL dimethyl formamide is 250 mM, then dilute 1/100 in water for final concentration, which is 2.5 mM) was added and the plate was incubated at room temperature for between 5 minutes and 3 hours. • Eighty microlitres of a 1M Na2CO3 solution was added and the absorbance was read in a plate-based spectrophotometer, either at 414 nm or a spectrum was recorded for each well over the visible region. The assay was repeated with a range of different dilutions (1⁄4 to 1/20) of the starting yeast culture in the wells of either 96 or 48 deep-well plates (the former can contain a total of 2 mL and the latter 5 mL.) Normally dilutions required to reach Abs600 nm=1 are in the range of 1⁄2 to 1⁄4. This experiment probed a set of higher dilutions. Incubation was for 17 hours at 30° C. and 900 rpm shaking. […] In 96 well plates, the higher cell dilutions consistently gave the better diacetyl-induced to control ratios (FIG. 11). The best ratio was in the case of the 96-well plate and the 1/20 dilution where the diacetyl-induced absorbance was 0.481 and the uninduced control was 0.079.

ODR-10 [2] = target: T1, ODR-10; test: 96-well LacZ/ONPG screen, positive control odr-10; details: 500 μM diacetyl
[3] = target: odr-10 non-functional mutant H110Y (Caenorhabditis elegans, UniProt Q18807, H110Y); details: 500 μM diacetyl; wells H11 and H12
ODR-10 [4] = target: T1, ODR-10; test: GFP reporter assay in Cyb-KAGMM yeast expressing ODR-10
ODR-10 [5] = target: T1, ODR-10; test: LacZ reporter assay (ONPG workup) in Cyb-KAGMM yeast expressing ODR-10; details: ONPG substrate

CC(=O)C(C)=O [diacetyl, butane-2,3-dione]
Abs414 reading after 3 hours (ODR-10 [1]; Abs600 nm=0.5 starting condition): 0.521 | Abs414 reading after 3 hours (ODR-10 [1]; Abs600 nm=1 starting condition): 0.247 | diacetyl-induced absorbance (Abs414 nm) (ODR-10 [1]; 96-well plate, 1/20 dilution of starting culture, 17 hours incubation): 0.481 | induction of lacZ (ODR-10 [1]; dilutions 1/4 to 1/20 of starting culture in 96 or 48 deep-well plates): detected in all the conditions except the 1/20 cell dilution in the 48 well plate | response (yellow colour, spectral peak at 420 nm) (ODR-10 [2]; clone in well H9): responds | response (colour or spectra) (ODR-10 [2]; clone in well H10): did not show any response | response (spectra) [3]: did not show any response | GFP fluorescence emission relative to uninduced (ODR-10 [4]; 50 μM diacetyl, pGK:Odr10 with Fig2:GFP (FIG. 5 panel C)): below the uninduced condition | difference between the peak GFP responses with ODR-10 expression and for the vector control (ODR-10 [4]; 500 μM diacetyl, best case (FIG. 5a, pGK:Odr10 with Fus1:GFP), 7 hrs induction): less than a twofold difference | maximum increase in signal over background (ODR-10 [5]; 700 μM diacetyl, LacZ driven by FUS-2 (so in the source), FIG. 8): approximately 6 fold | maximum ligand-induced increase in signal (ODR-10 [5]; 1 mM diacetyl, LacZ under FUS-1 promoter, FIG. 9): approximately 2.5 fold
